Source: patent US20240025906A1 (NEURON23, INC., priority 2022, published 2024)
Like-named read-outs stand apart in the source and are kept apart here.

How the values were obtained:
[1] = target: T1, TYK2 JH2 (Homo sapiens, UniProt P29597); assay: TYK2 JH2 binding assay (KINOMEscan KdELECT competitive binding); details: TYK2 JH2 domain
T1 construct: purchased DiscoverX (KINOMEscan KdELECT service); host or cells: E. coli BL21-derived (T7 phage display) or HEK-293
Outline: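 Kd values come from qPCR measurement of kinase retained on an immobilized-ligand resin after 1 h room-temperature competition with compound in an 11-point, 3-fold series.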

[2] = test system: JAK1/TYK2 pSTAT5 (Tyr694/699) in THP-1 cell line; assay: IFNa-stimulated JAK1/TYK2 pSTAT5 (Tyr694/699) inhibition cellular assay, AlphaLISA; type: cell-based; details: Homo sapiens, THP-1 cells, AlphaLISA (Assay B)
Outline: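 An eight-point 6-fold titration of compound (0.04–10000 nM final) is given to THP-1 cells for 1 h before 30 min of IFNa exposure. Phospho-STAT5 is read by AlphaLISA at 615 nm. IC50 values are derived by logistic regression with bottom set to 0 and Hill slope set to −1.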

[3] = KINOMEscan KdELECT (Assay A), read-out: Biochemical TYK2_DiscoverX_JH2_BND_Kd
[4] = IFNa-stimulated pSTAT5 (Tyr694/699), read-out: Cellular_THP1_IFNa-pSTATS_TYK2
[5] = DiscoverX KINOMEscan KdELECT (Assay A), read-out: Biochemical TYK2_DiscoverX_JH2_BND_Kd
[6] = IFNa-stimulated, read-out: Cellular_THP1_IFNa-pSTATS_TYK2
[7] = KINOMEscan KdELECT (Assay A), read-out: Biochemical TYK2_JH2_Kd
[8] = IFNa-stimulated, read-out: Cellular THP1_IFNa-pSTATS_IC50

T1 sequence (P29597 589-875 limits assumed): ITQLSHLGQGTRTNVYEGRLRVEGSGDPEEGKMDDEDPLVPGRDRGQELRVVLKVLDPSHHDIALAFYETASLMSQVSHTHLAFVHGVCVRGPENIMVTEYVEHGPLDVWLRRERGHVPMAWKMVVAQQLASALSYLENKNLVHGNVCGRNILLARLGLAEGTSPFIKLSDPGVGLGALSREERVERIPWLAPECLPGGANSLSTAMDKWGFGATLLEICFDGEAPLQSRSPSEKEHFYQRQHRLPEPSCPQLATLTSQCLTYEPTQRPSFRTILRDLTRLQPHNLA

| SMILES | Kd [1, 3] [nM] | IC50 [2, 6] [nM] | further results |
| --- | --- | --- | --- |
| CNc1ncc(C#Cc2ccc(N3CCN(C)C3=O)cc2)c2cc(NC(=O)C3CC3)ncc12 [Example 1000, N-(5-((4-(3-methyl-2-oxoimidazolidin-1-yl)phenyl)ethynyl)-8-(methylamino)-2,7-naphthyridin-3-yl)cyclopropanecarboxamide] | ≤ 100 |  | IC50 [2, 4]: ≤ 500 nM |
| CNc1ncc(-c2nc3c(CC#N)cccc3o2)c2cc(NC(=O)C3CC3)ncc12 [Example 273, N-(5-(4-(cyanomethyl)benzo[d]oxazol-2-yl)-8-(methylamino)-2,7-naphthyridin-3-yl)cyclopropanecarboxamide] |  | ≤ 500 | Kd [1, 5]: ≤ 100 nM |
| CNc1ncc(C#Cc2ccc(OC3COC3)cc2)c2cc(NC(=O)C3CC3)ncc12 [Example 707, N-(8-(methylamino)-5-((4-(oxetan-3-yloxy)phenyl)ethynyl)-2,7-naphthyridin-3-yl)cyclopropanecarboxamide] | ≤ 100 | ≤ 500 |  |
| CNc1ncc(-c2cn3cccnc3n2)c2cc(NC(=O)C3CC3)ncc12 [Example 841, N-(5-(imidazo[1,2-a]pyrimidin-2-yl)-8-(methylamino)-2,7-naphthyridin-3-yl)cyclopropanecarboxamide] | ≤ 100 | > 500 |  |
| C=C(c1ccc(OC)cc1)c1cnc(NC)c2cnc(NC(=O)C3CC3)cc12 [Example 136] |  |  | Kd [1, 7]: 100 to 1000 nM; IC50 [2, 8]: > 500 nM |
| CNc1ncc(-c2ccc(Oc3ccncc3)cc2)c2cc(NC(=O)C3CC3)ncc12 [Example 858, N-(8-(methylamino)-5-(4-(pyridin-4-yloxy)phenyl)-2,7-naphthyridin-3-yl)cyclopropanecarboxamide] | ≤ 100 | ≤ 500 |  |
| CNc1ncc(CCc2ccccc2)c2cc(NC(=O)C3CC3)ncc12 [Example 31, N-(8-(methylamino)-5-phenethyl-2,7-naphthyridin-3-yl)cyclopropanecarboxamide] |  |  | Kd [1, 7]: ≤ 100 nM; IC50 [2, 8]: > 500 nM |
| CNc1ncc(-c2nc3ccc(N4CCOCC4)cn3n2)c2cc(NC(=O)[C@@H](C)F)ncc12 (single isomer, unassigned) [Example 532] |  | ≤ 500 | Kd [1, 5]: ≤ 100 nM |
| CNc1ncc(-c2ccn(C(C)C)n2)c2cc(NC(=O)C3CC3)ncc12 [Example 148, N-(5-(1-isopropyl-1H-pyrazol-3-yl)-8-(methylamino)-2,7-naphthyridin-3-yl)cyclopropanecarboxamide] |  |  | Kd [1, 7]: ≤ 100 nM; IC50 [2, 8]: ≤ 500 nM |
| CNc1ncc(-c2nc(Cc3ncnn3C)co2)c2cc(NC(=O)C3CC3)ncc12 [Example 828, N-(5-(4-((1-methyl-1H-1,2,4-triazol-5-yl)methyl)oxazol-2-yl)-8-(methylamino)-2,7-naphthyridin-3-yl)cyclopropanecarboxamide] | ≤ 100 | > 500 |  |
| CNc1ncc(-c2nc3ccc(N4CC5CN(C)CC(C4)O5)cn3n2)c2cc(NC(=O)[C@H]3C[C@H]3C)ncc12 [Example 560, (1S,2R)-2-methyl-N-(5-(6-(7-methyl-9-oxa-3,7-diazabicyclo[3.3.1]nonan-3-yl)-[1,2,4]triazolo[1,5-a]pyridin-2-yl)-8-(methylamino)-2,7-naphthyridin-3-yl)cyclopropane-1-carboxamide] |  | ≤ 500 | Kd [1, 5]: ≤ 100 nM |
| [2H]C([2H])([2H])Nc1ncc(-c2nc3cc(N4CC(OC)C4)ccc3o2)c2cc(NC(=O)[C@H]3C[C@H]3C)ncc12 [Example 469, (1S,2R)—N-(5-(5-(3-methoxyazetidin-1-yl)benzo[d]oxazol-2-yl)-8-((methyl-d3)amino)-2,7-naphthyridin-3-yl)-2-methylcyclopropane-1-carboxamide] |  | ≤ 500 | Kd [1, 5]: ≤ 100 nM |
| CNc1ncc(C#Cc2ccc(OCC3COC3)cc2)c2cc(NC(=O)C3CC3)ncc12 [Example 677, N-(8-(methylamino)-5-((4-(oxetan-3-ylmethoxy)phenyl)ethynyl)-2,7-naphthyridin-3-yl)cyclopropanecarboxamide] | ≤ 100 | ≤ 500 |  |
| CNc1ncc(C#Cc2ccc(N3CCO[C@H](C)C3)cc2)c2cc(NC(=O)C3CC3)ncc12 [Example 708, (R)—N-(8-(methylamino)-5-((4-(2-methylmorpholino)phenyl)ethynyl)-2,7-naphthyridin-3-yl)cyclopropanecarboxamide] | ≤ 100 | ≤ 500 |  |
| CNc1ncc(-c2nc3cc(OC)ccc3o2)c2cc(NC(=O)[C@@H]3C[C@H]3C)ncc12 (racemic) [Example 382, N-(5-(5-methoxybenzo[d]oxazol-2-yl)-8-(methylamino)-2,7-naphthyridin-3-y1)-2-methylcyclopropane-1~carboxamide] |  | ≤ 500 | Kd [1, 5]: ≤ 100 nM |
| CNc1ncc(-c2ccc(-c3cn(C)nn3)cc2)c2cc(NC(=O)C3CC3)ncc12 [Example 871, N-(5-(4-(1-methyl-1H-1,2,3-triazol-4-yl)phenyl)-8-(methylamino)-2,7-naphthyridin-3-yl)cyclopropanecarboxamide] | ≤ 100 | ≤ 500 |  |
| CNc1ncc(-c2nc3cc(N4C5CCC4COC5)ccc3o2)c2cc(NC(=O)C3CC3)ncc12 [Example 311, N-(5-(5-(3-oxa-8-azabicyclo[3.2.1]octan-8-yl)benzo[d]oxazol-2-y1)-8-(methylamino)-2,7-naphthyridin-3-yl)cyclopropanecarboxamide] |  | ≤ 500 | Kd [1, 5]: ≤ 100 nM |
| CNc1ncc(-c2nc3ccc(OCC(C)(C)O)cn3n2)c2cc(NC(=O)C3CC3)ncc12 [Example 501, N-(5-(6-(2-hydroxy-2-methylpropoxy)-[1,2,4]triazolo[1,5-a]pyridin-2-yl)-8-(methylamino)-2,7-naphthyridin-3-yl)cyclopropanecarboxamide] |  | ≤ 500 | Kd [1, 5]: ≤ 100 nM |
| CNc1ncc(C#Cc2ccc(OC)cn2)c2cc(NC(=O)N3CC(OC)C3)ncc12 [Example 1083, 3-methoxy-N-[5-[2-(5-methoxy-2-pyridyl)ethynyl]-8-(methylamino)-2,7-naphthyridin-3-yl]azetidine-1-carboxamide] | ≤ 100 |  | IC50 [2, 4]: > 500 nM |
| CNc1ncc(-c2nc3cc(C(C)=O)ccc3o2)c2cc(NC(=O)C3CC3)ncc12 [Example 216, N-(5-(5-acetylbenzo[d]oxazol-2-yl)-8-(methylamino)-2,7-naphthyridin-3-yl)cyclopropanecarboxamide] |  | ≤ 500 | Kd [1, 5]: ≤ 100 nM |
| CNc1ncc(C#Cc2ccc(OC)cc2CO)c2cc(NC(=O)C3CC3)ncc12 [Example 965, N-[5-[2-[2-(hydroxymethyl)-4-methoxy-phenyl]ethynyl]-8-(methylamino)-2,7-naphthyridin-3-yl]cyclopropanecarboxamide] | ≤ 100 | ≤ 500 |  |
| CNc1ncc(C#Cc2ccc(N3CCO[C@H](C)C3)cc2)c2cc(NC(=O)C3CC3)nnc12 [Example 883, (R)—N-(8-(methylamino)-5-((4-(2-methylmorpholino)phenyl)ethynyl)pyrido[3,4-c]pyridazin-3-yl)cyclopropanecarboxamide] | ≤ 100 | ≤ 500 |  |
| CNc1ncc(C#Cc2ccc(OC)cn2)c2cc(NC(=O)C3COC3)ncc12 [Example 1084, N-[5-[2-(5-methoxy-2-pyridyl)ethynyl]-8-(methylamino)-2,7-naphthyridin-3-yl]oxetane-3-carboxamide] | ≤ 100 |  | IC50 [2, 4]: > 500 nM |
| CNc1ncc(Br)c2cc(NC(=O)C3CC3)ncc12 [Example 3, N-(5-bromo-8-(methylamino)-2,7-naphthyridin-3-yl)cyclopropanecarboxamide] |  |  | Kd [1, 7]: ≤ 100 nM; IC50 [2, 8]: > 500 nM |
| CNc1ncc(C#Cc2ccc3c(c2)OCC(CO)O3)c2cc(NC(=O)C3CC3)ncc12 (stereo not shown) [Example 696, N-(5-((2-(hydroxymethyl)-2,3-dihydrobenzo[b][1,4]dioxin-6-yl)ethynyl)-8-(methylamino)-2,7-naphthyridin-3-yl)cyclopropanecarboxamide] | ≤ 100 | ≤ 500 |  |
| CNc1ncc(-c2nc3cc(N4CCO[C@@H](COC)C4)ccc3o2)c2cc(NC(=O)C3CC3)ncc12 (single isomer, unassigned) [Example 920] | ≤ 100 | ≤ 500 |  |
| CNc1ncc(C#Cc2cnc(C)n2C)c2cc(NC(=O)C3CC3)ncc12 [Example 1004, N-(5-((1,2-dimethyl-1H-imidazol-5-yl)ethynyl)-8-(methylamino)-2,7-naphthyridin-3-yl)cyclopropanecarboxamide] | ≤ 100 |  | IC50 [2, 4]: ≤ 500 nM |
| CNc1ncc(C#Cc2ccc3c(c2)CC[C@@H](CO)O3)c2cc(NC(=O)C3CC3)ncc12 (single isomer, unassigned) [Example 983] | ≤ 100 | ≤ 500 |  |
| CNc1ncc(C#Cc2ccc(N3CCCC3=O)cc2)c2cc(NC(=O)C3CC3)ncc12 [Example 674, N-(8-(methylamino)-5-((4-(2-oxopyrrolidin-1-yl)phenyl)ethynyl)-2,7-naphthyridin-3-yl)cyclopropanecarboxamide] | ≤ 100 | ≤ 500 |  |
